In patent US8697739B2, “Bicyclic acetyl-CoA carboxylase inhibitors and uses thereof” (Novartis AG, priority 2010, dated 2014):

Target: T1, human acetyl-CoA carboxylase 2 (ACC2) (Homo sapiens, UniProt O00763)
T1 construct: The cDNA encoding amino acids 144 to 2458 of human acetyl-CoA carboxylase 2; made in house; host or cells: Sf9 insect cells (baculovirus, pFastBac1)
Assay: Acetyl-CoA carboxylase enzyme assay (malonyl-CoA formation by LC/MS/MS)
Assay type: biochemical
Details: recombinant human ACC2 (aa 144-2458); read-out: IC50 ACC2
Source text: The cDNA encoding amino acids 144 to 2458 of human acetyl-CoA carboxylase 2 (ACC2, GenBank Accession #NM_001093) was cloned into the SalI and NotI sites of pFastBac1 (Invitrogen; Carlsbad, Calif.). The resulting plasmid was used to generate a recombinant ACC2 baculovirus that was amplified and titered according to the protocols in the Bac-to-Bac baculovirus expression system manual (Invitrogen). The titered virus was used to infect Sf9 cells grown in Ex-Cell 420 serum-free medium (JRH Biosciences; Lenexa, Kans.). At 48 hours post-infection, the cells were harvested and stored at −80° C. until purification. ACC2 was purified using ammonium sulfate precipitation and anion exchange chromatography.
The enzymatic assay was run as follows: 30 μL of reaction buffer (100 mM HEPES pH 7.5, 20 mM MgCl2, 20 mM potassium citrate, 2 mM DTT) was added to a 384-well microtiter plate followed by 2 μL of the test compound (or 100% DMSO control). ACC2 protein (10 μL of a 50 nM working solution) was added to plate, which was incubated at room temperature for 15 minutes. A 30 μL addition of substrate solution (50 μM acetyl-CoA, 120 μM ATP, 2 mM KHCO3) was used to initiate the reactions which were quenched with 6% acetic acid (40 μL). ACC catalyzed malonyl-CoA formation was detected by LC/MS/MS using a Cohesive Technologies LX Series multiplex LC/MSIMS system configured with four binary pumps (Agilent Technologies; Palo Alto, Calif.), a dual arm autosampler (Leap Technologies; Cary, N.C.), and one Quattro Micro triple quadrupole mass spectrometer (Waters, Milford, Mass.), all run by Aria Software version 1.5 (Cohesive Technologies; Franklin, Mass.). Four samples were injected (20 μL) onto four Phenosphere NEXT C18 30×2 mm 5 μm columns (Phenomenex; Torrance, Calif.), eluted by four separate pumps, running identical gradients, through a column switching manifold with the one outlet fitted to the electrospray (ESI) source. Malonyl-CoA was eluted with 5 mM ammonium acetate, pH 4.5 (Buffer A) and 100% acetonitrile (Buffer B) via a step gradient. Argon was used as the collision gas and the following species were monitored via MRM detection: malonyl-CoA (853.8>346.9), internal standard (A: [^13C3]-malonyl-CoA, 857>350). The lower limit of detection is 0.3 uM for malonyl-CoA in this assay.

T1 sequence (O00763 144-2458): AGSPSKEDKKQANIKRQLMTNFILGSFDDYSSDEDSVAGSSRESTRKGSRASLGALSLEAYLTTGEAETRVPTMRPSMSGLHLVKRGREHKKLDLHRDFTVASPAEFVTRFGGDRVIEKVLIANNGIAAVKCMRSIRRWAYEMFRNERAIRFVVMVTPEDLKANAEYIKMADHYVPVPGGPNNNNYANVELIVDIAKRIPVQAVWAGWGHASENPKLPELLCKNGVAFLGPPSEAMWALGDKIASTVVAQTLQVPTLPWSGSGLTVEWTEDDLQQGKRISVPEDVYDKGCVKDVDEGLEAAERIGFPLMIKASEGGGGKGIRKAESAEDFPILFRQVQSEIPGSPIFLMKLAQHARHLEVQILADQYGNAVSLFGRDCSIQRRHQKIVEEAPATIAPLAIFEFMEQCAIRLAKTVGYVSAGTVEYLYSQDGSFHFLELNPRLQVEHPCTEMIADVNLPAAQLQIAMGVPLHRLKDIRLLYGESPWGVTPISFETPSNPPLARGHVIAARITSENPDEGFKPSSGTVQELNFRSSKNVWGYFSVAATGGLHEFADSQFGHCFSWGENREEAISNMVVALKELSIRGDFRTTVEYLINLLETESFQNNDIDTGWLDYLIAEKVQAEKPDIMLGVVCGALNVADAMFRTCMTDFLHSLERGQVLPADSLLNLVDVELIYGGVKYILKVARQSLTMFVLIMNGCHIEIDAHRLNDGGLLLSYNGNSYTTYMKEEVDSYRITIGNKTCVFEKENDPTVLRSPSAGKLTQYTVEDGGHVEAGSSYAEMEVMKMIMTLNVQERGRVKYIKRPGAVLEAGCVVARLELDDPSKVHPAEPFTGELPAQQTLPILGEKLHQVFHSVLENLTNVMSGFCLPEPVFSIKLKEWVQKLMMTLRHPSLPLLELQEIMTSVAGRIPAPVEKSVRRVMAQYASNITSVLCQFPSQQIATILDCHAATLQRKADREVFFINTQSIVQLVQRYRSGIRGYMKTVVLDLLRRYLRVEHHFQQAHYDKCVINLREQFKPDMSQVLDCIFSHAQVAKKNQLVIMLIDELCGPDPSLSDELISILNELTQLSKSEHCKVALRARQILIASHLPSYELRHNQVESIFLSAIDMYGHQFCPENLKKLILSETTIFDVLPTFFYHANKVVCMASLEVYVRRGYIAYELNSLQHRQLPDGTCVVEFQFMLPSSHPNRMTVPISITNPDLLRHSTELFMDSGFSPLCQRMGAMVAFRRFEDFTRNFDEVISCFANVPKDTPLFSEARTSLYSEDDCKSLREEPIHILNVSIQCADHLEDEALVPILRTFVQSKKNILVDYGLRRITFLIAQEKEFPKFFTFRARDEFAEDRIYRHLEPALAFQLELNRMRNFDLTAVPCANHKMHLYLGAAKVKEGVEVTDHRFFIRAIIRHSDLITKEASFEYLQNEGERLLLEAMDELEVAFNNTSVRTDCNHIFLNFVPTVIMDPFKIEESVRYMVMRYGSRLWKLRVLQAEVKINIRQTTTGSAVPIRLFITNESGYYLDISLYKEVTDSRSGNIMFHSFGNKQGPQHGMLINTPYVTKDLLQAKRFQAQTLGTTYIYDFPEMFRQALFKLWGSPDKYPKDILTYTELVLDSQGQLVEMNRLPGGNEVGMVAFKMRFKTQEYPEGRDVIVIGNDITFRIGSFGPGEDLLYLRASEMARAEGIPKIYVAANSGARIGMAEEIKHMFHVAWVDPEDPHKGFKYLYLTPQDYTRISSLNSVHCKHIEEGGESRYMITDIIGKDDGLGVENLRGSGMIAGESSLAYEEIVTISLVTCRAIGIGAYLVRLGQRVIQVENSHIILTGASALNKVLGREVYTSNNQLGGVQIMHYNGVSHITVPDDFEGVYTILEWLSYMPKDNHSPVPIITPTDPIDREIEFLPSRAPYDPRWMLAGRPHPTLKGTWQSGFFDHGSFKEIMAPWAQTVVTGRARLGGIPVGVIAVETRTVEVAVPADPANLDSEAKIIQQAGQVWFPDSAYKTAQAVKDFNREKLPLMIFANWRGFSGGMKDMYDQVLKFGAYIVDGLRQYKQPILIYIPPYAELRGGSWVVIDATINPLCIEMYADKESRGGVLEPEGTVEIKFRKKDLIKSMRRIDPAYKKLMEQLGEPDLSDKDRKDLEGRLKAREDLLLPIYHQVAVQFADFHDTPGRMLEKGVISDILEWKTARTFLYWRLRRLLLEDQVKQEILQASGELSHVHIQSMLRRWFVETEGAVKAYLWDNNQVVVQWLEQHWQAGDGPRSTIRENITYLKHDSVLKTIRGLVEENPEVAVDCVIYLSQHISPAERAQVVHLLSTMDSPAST

| IC50 [nM] | SMILES |
| --- | --- |
| 245 | Cc1c(C2CC2)n(C)c2cc(S(=O)(=O)N[C@H]3CC[C@H](C(=O)N4CCOC[C@@H]4C)CC3)ccc12 [Example 32, 2-cyclopropyl-1,3-dimethyl-N-((1S,4r)-4-((S)-3-methylmorpholine-4-carbonyl)cyclohexyl)-1H-indole-6-sulfonamide] |
| 140 | C[C@@H](NC(=O)[C@H]1CC[C@H](NS(=O)(=O)c2cnc3c(c2)NCCN3)CC1)c1ccc(F)cc1 [Example 33, (1r,4R)—N—((R)-1-(4-fluorophenyl)ethyl)-4-(1,2,3,4-tetrahydropyrido[3,2-b]pyrazine-7-sulfonamido)cyclohexanecarboxamide] |
| 138 | C[C@@H](NC(=O)[C@H]1CC[C@H](NS(=O)(=O)c2cnc3c(c2)N(C)CCN3C)CC1)c1ccc(F)cc1 [Example 34, (1r,4R)-4-(1,4-dimethyl-1,2,3,4-tetrahydropyrido[3,2-b]pyrazine-7-sulfonamido)-N—((R)-1-(4-fluorophenyl)ethyl)cyclohexanecarboxamide] |
| 10 | C[C@@H](NC(=O)[C@H]1CC[C@H](NS(=O)(=O)c2cnc3c(c2)NCCS3)CC1)c1ccc(F)cc1 [Example 35, (1r,4R)-4-(2,3-dihydro-1H-pyrido[2,3-b][1,4]thiazine-7-sulfonamido)-N—((R)-1-(4-fluorophenyl)ethyl)cyclohexanecarboxamide] |
| 50 | CCOc1ccc2cc(S(=O)(=O)N[C@H]3CC[C@H](C(=O)N[C@H](C)c4ccc(F)cc4)CC3)ccc2n1 [Example 36, (1r,4R)-4-(2-ethoxyquinoline-6-sulfonamido)-N—((R)-1-(4-fluorophenyl)ethyl)cyclohexanecarboxamide] |
| 75 | CCOc1ccc2cc(S(=O)(=O)N[C@H]3CC[C@H](C(=O)N[C@@H](c4ccccc4)[C@@H](C)O)CC3)ccc2n1 [Example 37, (1r,4S)-4-(2-ethoxyquinoline-6-sulfonamido)-N-((1S,2R)-2-hydroxy-1-phenylpropyl)cyclohexanecarboxamide] |
| 50 | C[C@@H](NC(=O)[C@H]1CC[C@H](NS(=O)(=O)c2ccc3nc(N4CCN(C)CC4)ccc3c2)CC1)c1ccc(F)cc1 [Example 38, (1r,4R)-N-((R)-1-(4-fluorophenyl)ethyl)-4-(2-(4-methylpiperazin-1-yl)quinoline-6-sulfonamido)cyclohexanecarboxamide] |
| 25 | C[C@@H](NC(=O)[C@H]1CC[C@H](NS(=O)(=O)c2ccc3nc(-c4ccncc4)ccc3c2)CC1)c1ccc(F)cc1 [Example 39, (1r,4R)-N-((R)-1-(4-fluorophenyl)ethyl)-4-(2-(pyridin-4-yl)quinoline-6-sulfonamido)cyclohexanecarboxamide] |
| 34100 | C[C@@H](NC(=O)[C@H]1CC[C@H](NS(=O)(=O)c2ccc3nc(C(F)(F)F)cn3c2)CC1)c1ccc(F)cc1 [Example 40, (1r,4R)-N-((R)-1-(4-fluorophenyl)ethyl)-4-(2-(trifluoromethyl)imidazo[1,2-a]pyridine-6-sulfonamido)cyclohexanecarboxamide] |
| 4640 | C[C@@H](NC(=O)[C@H]1CC[C@H](NC(=O)Nc2ccc3[nH]c(-c4ccccc4)nc3c2)CC1)c1ccc(F)cc1 [Example 41, (1r,4R)-N-((R)-1-(4-fluorophenyl)ethyl)-4-(3-(2-phenyl-1H-benzo[d]imidazol-5-yl)ureido)cyclohexanecarboxamide] |
| 94 | C[C@@H](NC(=O)[C@H]1CC[C@H](NS(=O)(=O)c2ccc3nc(Cl)ccc3c2)CC1)c1ccc(F)cc1 [Example 42, (1r,4R)-4-(2-chloroquinoline-6-sulfonamido)-N-((R)-1-(4-fluorophenyl)ethyl)cyclohexanecarboxamide] |
| 412 | O=C([C@H]1CC[C@H](NS(=O)(=O)c2cnc3ccccc3c2)CC1)N1CCCC1c1ccccc1 (some centres unmarked) [Example 43, N-((1r,4r)-4-(2-phenylpyrrolidine-1-carbonyl)cyclohexyl)quinoline-3-sulfonamide] |
| 450 | CC(NC(=O)[C@H]1CC[C@H](NS(=O)(=O)c2cnc3ccccc3c2)CC1)c1cccc(F)c1 (some centres unmarked) [Example 44, (1r,4r)-N-(1-(3-fluorophenyl)ethyl)-4-(quinoline-3-sulfonamido)cyclohexanecarboxamide] |
| > 35000 | CC(NC(=O)[C@H]1CC[C@H](NS(=O)(=O)c2cnc3ccccc3c2)CC1)c1ccc(C(F)(F)F)cc1 (some centres unmarked) [Example 45, (1r,4r)-4-(quinoline-3-sulfonamido)-N-(1-(4-(trifluoromethyl)phenyl)ethyl)cyclohexanecarboxamide] |
| 9040 | C[C@@H](NC(=O)[C@H]1CC[C@H](NS(=O)(=O)c2cnc3ccccc3c2)CC1)c1ccccc1C(F)(F)F [Example 46, (1r,4R)-4-(quinoline-3-sulfonamido)-N-((R)-1-(2-(trifluoromethyl)phenyl)ethyl)cyclohexanecarboxamide] |
| 4220 | CN1CCN(C(=O)[C@H]2CC[C@H](NS(=O)(=O)c3cnc4ccccc4c3)CC2)C(c2ccccc2)C1 (some centres unmarked) [Example 47, N-((1r,4r)-4-(4-methyl-2-phenylpiperazine-1-carbonyl)cyclohexyl)quinoline-3-sulfonamide] |
| 32800 | O=C([C@H]1CC[C@H](NS(=O)(=O)c2cnc3ccccc3c2)CC1)N1CCCC1C(F)(F)F (some centres unmarked) [Example 48, N-((1r,4r)-4-(2-(trifluoromethyl)pyrrolidine-1-carbonyl)cyclohexyl)quinoline-3-sulfonamide] |
| 43 | COc1ccc2cc(S(=O)(=O)N[C@H]3CC[C@H](C(=O)N[C@H](C)c4ccc(F)cc4)CC3)ccc2n1 [Example 49, (1r,4R)-N-((R)-1-(4-fluorophenyl)ethyl)-4-(2-methoxyquinoline-6-sulfonamido)cyclohexanecarboxamide] |
| > 35000 | C[C@@H](NC(=O)[C@H]1CC[C@H](NS(=O)(=O)c2ccc3nc(OCC(F)(F)F)ccc3c2)CC1)c1ccc(F)cc1 [Example 50, (1r,4R)-N-((R)-1-(4-fluorophenyl)ethyl)-4-(2-(2,2,2-trifluoroethoxy)quinoline-6-sulfonamido)cyclohexanecarboxamide] |
| 435 | C[C@@H](NC(=O)[C@H]1CC[C@H](NS(=O)(=O)c2cnc3nc(-c4ccccc4)sc3c2)CC1)c1ccc(F)cc1 [Example 52, (1r,4R)-N-((R)-1-(4-fluorophenyl)ethyl)-4-(2-phenylthiazolo[4,5-b]pyridine-6-sulfonamido)cyclohexanecarboxamide] |
| 93 | C[C@@H](NC(=O)[C@H]1CC[C@H](NS(=O)(=O)c2ccc3nc(N(C)C)ccc3c2)CC1)c1ccc(F)cc1 [Example 53, (1r,4R)-4-(2-(dimethylamino)quinoline-6-sulfonamido)-N-((R)-1-(4-fluorophenyl)ethyl)cyclohexanecarboxamide] |
| 193 | C[C@@H](NC(=O)[C@H]1CC[C@H](NS(=O)(=O)c2ccc3nc(O)ccc3c2)CC1)c1ccc(F)cc1 [Example 54, (1r,4R)-N-((R)-1-(4-fluorophenyl)ethyl)-4-(2-hydroxyquinoline-6-sulfonamido)cyclohexanecarboxamide] |

| SMILES | IC50 [nM] |
| --- | --- |
| C[C@@H](NC(=O)[C@H]1CC[C@H](NS(=O)(=O)c2ccc3nc(OC4CCC4)ccc3c2)CC1)c1ccc(F)cc1 [Example 51, (1r,4R)-4-(2-cyclobutoxyquinoline-6-sulfonamido)-N-((R)-1-(4-fluorophenyl)ethyl)cyclohexanecarboxamide] | 101 |
